Assay results reported in patent US7342033B2 (Vereniging Voor Christelijk Wetenschappelijk Onderwijs, priority 1999, dated 2008).

Tested on: multiple sclerosis patients
Test: Adverse events and tolerability in the same study
Format: in vivo, human
From the text: We selected 9 women and 7 men (aged 30-66 years) with documented progression during the 24 months before inclusion, from a natural history study. Kurtzke's EDSS scores were between 3.0 (inclusive) and 7.5 (inclusive). All adverse events were documented; safety lab consisted of serum transaminases (monthly for 3 months and every 3 months thereafter) and hematology (CBC and differential every 6 months) after the start of treatment. The study was approved by the hospital ethics committee, and all patients gave informed consent.

Nc1nc2ccc(OC(F)(F)F)cc2s1 [riluzole, (6-trifluoromethoxy)-2-benzothiazolamine)]
Medically severe adverse effects (14 patients who took medication for over three months): not observed | Patients who needed intermittent reduction in dosage of study drug (of 16 patients, riluzole 2×50 mg daily): Five | Patients who discontinued treatment because of side effects (of 16 patients, headache in one, increase in spasticity in the other): Two
